Measured values: US9926529B2, “Derivation of neural stem cells and dopaminergic neurons from human pluripotent stem cells” (International Stem Cell Corporation, priority 2012, dated 2018)

Tests used:
Type in all cases: cell-based, human
hPSC-derived DA neurons = assay: Whole cell patch clamp electrophysiology of GS-treated neurons; conditions: current clamp, after 90 days of GS treatment
Protocol: Whole cell patch clamp electrophysiology methods. For electrophysiological recordings, the cells were transferred to a recording chamber mounted on an inverted Olympus microscope. During the recordings the temperature was maintained at 31-32° C., and the cells perfused at constant flow of 1 ml/min. with 150 mM NaCl, 4 mM KCl, 1.8 mM CaCl2, 1 mM MgCl2, 10 mM HEPES, 10 mM Glucose at pH 7.30 and 315 mOsm. Whole-cell recordings were obtained using borosilicate electrodes with tip resistance of 2-3 MΩ, filled with 130 mM K-Gluconate, 5 mM NaCl, 5 mM KCl, 10 mM HEPES, 20 mM Sucrose, 0.3 mM EGTA, 3 mM MgATP at pH 7.30 and 290 mOsm. Data were acquired using an HEKA EPC-10 digitizer/amplifier. Once whole-cell access was achieved the resting membrane potential was immediately recorded; the cells were then allowed to equilibrate for 3-5 min. From a resting membrane potential of −70 mV, the cells were then depolarized in current-clamp mode with 200 ms current injections, delivered at 0.2 Hz., and with increasing amplitude from 50 pA to up to 1000 pA to induce action potentials. The presence of inward or outward currents was determined by applying a voltage ramp. Cells with unstable recording configuration or for which the series resistance became larger than 15MΩ were excluded from the study. Twenty different cells were recorded and action potentials were obtained from 7 patch-clamped cells.

hPSC-NSCs = assay: Dopamine ELISA of conditioned medium (dopamine release)
Protocol: (§1) To obtain DA neurons, hPSC-NSC were first primed into DA precursors with 100 ng/mL FGF8 and 2 μM Purmorphamine for 7 days and then used to screen for small molecules that induce terminal dopaminergic differentiation (FIG. 6A). The DA precursors were plated at 2000 cells/well of a 96-well plate and treated with a small molecule library (Tocris 1120 biologically active compounds) at 2.5 μM for two weeks (FIG. 6A). Dopaminergic differentiation was assessed by neurite outgrowth and ELISA analysis for dopamine release (FIG. 6A). From this screen, guggulsterone (GS), a naturally occurring steroid, was identified among the best inducers of dopaminergic differentiation (FIG. 6A). After 30 days of differentiation, GS-treated neurons appeared mature with elaborate neurite extensions. […] Spontaneous action potentials were recorded in whole cultures of GS-treated neurons using a microelectrode array (MEA) system (FIG. 6J). […]
Conditioned medium from the top neurite inducers (Table 1) (wells containing the highest density of neurites compare to control 0.1% DMSO treated) were collected and analyzed using a dopamine ELISA assay (Cosmo Bio). […] Supernatant was then collected and analyzed for quantitative determination of dopamine using a commercial dopamine ELISA assay kit (CusaCosmo Bio). Data analysis was performed using the microtiter plate reader (BIO-TEK Synergy 2). […]

[1] = tested on: hPSC-NSC derived DA neurons; assay: FACS analysis of derived DA neurons stained for TH; conditions: after 30 days of differentiation with guggulsterone
Protocol: as §1
For flow cytometry analysis, 1 million cells per sample were harvested with Accutase, washed with PBS, and fixed with 4% paraformaldehyde for 30 min at room temperature. […] The samples were run on a Becton Dickinison FACSCalibur™ 4-color flow cytometer and the data was analyzed with CellQuest Pro™ software (v6.0). […]

With `C/C=C1\C(=O)C[C@H]2[C@@H]3CCC4=CC(=O)CC[C@]4(C)[C@H]3CC[C@]12C` [Guggulsterone] as the molecule, how does the “patch-clamped cells in which action potentials were found” value (hPSC-derived DA neurons) read?
Its value is 7 out of 20.

And the “increase in dopamine secretion compared to control cells (ELISA)” value (hPSC-NSCs; control: NSCs 1 week FGF8 and purmorphamine, 2 weeks 0.1% DMSO instead of GS)?
Its value is “five-fold increase”.

What about the “levels of Dopamine spontaneous release” value (hPSC-NSCs; treated hPSC-NSCs, compared among top hits) of the same molecule?
Its value is “highest levels”.

And the “cells gated TH positive (FACS)” value [1]?
Its value is “more than 97%”.
